Bridge positions count the residues as written; N and C are the ends. Ends that are not written are not given here. I, II: the chains in the order shown. * marks the point of attachment. Palmitoyl = CCCCCCCCCCCCCCCC(=O)*
Tests used:
[1] = Rheology of PA hydrogels (strain sweep, G′/G″ crossover); format: physicochemical; settings: PA gels, 10 mol % co-assemblies
Experimental: Gels were made using 2 wt % PA solutions prepared as previously described, using 10 mol % co-assemblies of epitope PA with diluent PA. 12-well chamber slides (Ibidi) were coated with 0.01 mg/mL poly-D-lysine (Sigma-Aldrich) solution and incubated overnight at 37° C. The wells were washed three times with water and air-dried for at least 30 minutes. 120 μL of PA solution was pipetted evenly into the well and gelling solution comprised of 110 mM NaCl, 3 mM KCl, and 25 mM CaCl2 was pipetted dropwise on top of the PA solution. The gels were incubated at 37° C. for 30 minutes, and then excess gelling solution was removed.
Measurements were performed on an Anton Paar MCR302 rheometer with a 25 mm parallel-plate fixture. 120 μL of the PA/HA hybrid slurry was placed on the bottom plate and 30 μL of a 50 mM CaCl2/75 mM NaCl gelling solution was placed on the upper fixture. The fixture was lowered to a gap of 0.5 mm for 10 min during which time a 0.1% oscillatory strain was applied with a 10 rad/s angular frequency. The gap height was allowed to vary to keep the normal force at 0 N. Next, a strain sweep was performed at 10 rad/s from 0.1% to 100% strain to measure the strain to break the gel.

[2] = tested on: Smad2 phosphorylation (intracellular TGF-β1 signaling) in human chondrocytes; assay: Western blot of phosphorylated Smad2 after 4 h treatment; format: cell-based; settings: for p-Smad2 activation: 50 μM, 4 h
Experimental: For western blot of 4 h PA treatments, cells were seeded in 6-well plates at a density of 600,000 cells/well and cultured for 24 h. […] Cells were then treated with PA in solution for 4 h in vitro. For western blot of 3-day PA treatments, cells were seeded in 6-well plates at a density of 230,000 cells/well and cultured for 24 h. Cells were then treated with PA in solution for 3 days in vitro.
Protein was extracted from cells using Halt Protease and Phosphatase Inhibitor Cocktail (Thermo Scientific) and a BCA assay (Thermo Scientific) was performed to determine protein content of each sample. Cell protein was loaded into and separated using a 4-20% SDS-PAGE gel (Bio-Rad). It was then electrotransferred from the gel to a nitrocellulose membrane (Bio-Rad). The membranes were blocked with 10% milk solution (Bio-Rad) for 30 minutes followed by an overnight incubation with primary antibodies at 4° C. The following primary antibodies were used: rabbit anti-pSmad2 (1:1000, Cell Signaling), rabbit anti-Smad2 (1:1000, Cell Signaling), rabbit anti-Sox9 (1:500, Abcam), mouse anti-Aggrecan (1:500, ThermoFisher), rabbit anti-COMP/Cartilage oligomeric matrix protein (1:500, Abcam), mouse anti-Collagen II (1:500, ThermoFisher), and mouse anti-Actin (1:1000, Novus Bio). Membranes were then incubated with their corresponding secondary HRP-conjugated antibodies (1:1000, ThermoFisher). Protein signals were detected using Radiance Bioluminescent ECL substrate (Azure Biosystems). Densitometry analysis, standardized to total receptor content or actin as a control for protein loading, was performed using ImageJ software. For quantification, experimental triplicate samples were analyzed, and two different experiments were conducted.

[3] = tested on: collagen II, aggrecan and F-actin in human chondrocytes; assay: Immunocytochemistry staining and fluorescence intensity analysis after three days; format: cell-based; settings: three days in vitro
Experimental: For immunocytochemistry (ICC), 12-mm glass coverslips were coated with sterile filtered 0.01 mg/mL poly-D-lysine (Sigma-Aldrich) solution and incubated overnight at 37° C. The coverslips were washed three times with sterile water and air-dried for at least 30 minutes. Cells were seeded on coverslips at a density of approximately 3,000 cells/coverslip and cultured for 24 h. Cells were then treated with PA in solution for 3 days in vitro. Following treatment, cells were fixed in 4% paraformaldehyde for 15 minutes at room temperature.
Fixed samples were permeabilized and blocked in a solution of 0.1% (v/v) Triton X-100 and 1% normal horse serum (Invitrogen) for 2 hours at room temperature. Samples were incubated with primary antibodies overnight at 4° C. The following primary antibodies were used: rabbit anti-Sox9 (1:500, Abcam), mouse anti-Aggrecan (1:500, ThermoFisher), mouse anti-Collagen II (1:500, ThermoFisher), and mouse anti-Nuclei (1:500, Sigma-Aldrich). The next day, samples were incubated with AlexaFluor 488 secondary antibody, AlexaFluor 555 secondary antibody, Phalloidin AlexaFluor 488, and/or Phalloidin AlexaFluor 633 (1:1000, Invitrogen) for 2-3 h at room temperature. For 2D cell culture, samples were then incubated with DAPI (1:1000, Invitrogen) for 10 minutes at room temperature. If not already on a glass coverslip, samples were mounted with Immu-Mount (Thermo Scientific) and imaged on a Nikon A1R Spectral microscope. Image analysis was performed using ImageJ software.

[4] = Cryo-TEM of PA nanostructures; format: physicochemical; settings: 10 mol % co-assembly with diluent backbone PA
Experimental: 300-mesh copper grids with lacey carbon film (Electron Microscopy Sciences) were glow discharged for 30 seconds in a PELCO easiGlow system (Ted Pella, Inc.). PA solutions were prepared as previously described and then diluted to 1 mM in water before imaging. 7 μL of PA solution was placed onto grids, blotted, and plunge-frozen in liquid ethane using an FEI Vitrobot Mark IV (FEI), maintained at 95-100% humidity. While submerged in liquid nitrogen, vitrified samples were transferred to a Gatan 626 cryo-holder (Gatan) and imaged on a JEOL 1230 TEM operating at 100 kV accelerating voltage. Liquid nitrogen temperatures were maintained during imaging, and micrographs were captured with a Gatan 832 CCD camera.

[5] = tested on: C28/I2 human articular chondrocytes
Experimental: PA solutions (backbone PA, TGF PA, ln TGF PA, and peptide only) were prepared at 1 wt % as previously described, under sterile conditions. For cell treatments lasting <24 h, PA treatment solutions or native rhTGF-β1 protein (R&D Systems) were diluted in starvation medium, which comprised of DMEM High Glucose Medium (Gibco) supplemented with 0.5% fetal bovine serum (Denville Scientific), 100 U/mL penicillin, and 100 μg/mL streptomycin (Gibco). For cell treatments lasting 24 h or more, PA treatment solutions or native rhTGF-β1 protein (R&D Systems) were diluted in complete growth medium. PA solutions were prepared at a range of concentrations, 1, 10, 50, and 100 μM, where the concentration refers to the concentration of the epitope PA.
For cell viability assays, cells were seeded in 48-well plates at a density of approximately 15,400 cells/well and cultured for 24 h. Cells were then treated with PA in solution for 24 h or 3 days in vitro.
For 2D viability assays, cells were cultured and treated with PA solutions in vitro as previously described. After 24 h or 3 days of culture, cells were washed with HBSS (Gibco), and media was exchanged with HBSS containing 2 μM Calcein AM (Invitrogen) and 100 ng/mL propidium iodide (Sigma-Aldrich) for 30 minutes at 37° C. Cells were washed with HBSS and imaged.

In the case of “TGF PA-a: backbone PA-a (SEQ ID NO: 7) conjugated to cyclic TGF-β1 mimetic peptide (SEQ ID NO: 1) by a linker; co-assembled with diluent Backbone PA-a (chain Palmitoyl-AAEEK-OH; peptide CESPLKRQC; disulfide II:1-II:9; not fully specified (some residues); also: co-assembled with diluent backbone PA-a)”, the “G′/G″ crossover % strain” value [1] is reported as 5.80 ± 1.40%, the “G′/G″ crossover storage modulus” value [1] is reported as 0.63 ± 1.14 kPa and the p-Smad2 activation ([2]; 10 mol % co-assemblies) is reported as “upregulated p-Smad2 significantly more than all other PA treatments”. For the same substance, the p-Smad2 activation ([2]; 10 mol % co-assembly) was “strong p-Smad2 activation”, the “activation of p-Smad2 with addition of pan-TGF-β-neutralizing antibody 1D11” value ([2]; with vs without 1D11) was “effectively neutralized” and the “significance of the neutralizing effect of 1D11 on p-Smad2 activation” value ([2]; with vs without 1D11) was “statistically significant”. For the same substance, the aggrecan synthesis ([3]; 10 μM, ICC) was “significantly increased aggrecan synthesis at similar levels”, the “collagen II production compared with native rhTGF-β1” value ([3]; 10 μM, ICC) was “significantly more collagen II production than native rhTGF-β1” and the “chondrocyte phenotype (F-actin staining)” value [3] was “maintained healthy chondrocyte phenotypes and prevented hypertrophy”. The “width of ribbon-like nanostructures” value [4] was 50-60 nm and the “biocompatibility compared with corresponding Backbone PA-b systems” value [5] was “higher biocompatibility”.
